Data as given in paper PMC4503722, “Novel Phenotypic Outcomes Identified for a Public Collection of Approved Drugs from a Publicly Accessible Panel of Assays” (PLoS ONE, 2015).
Where two headings read alike, the source gives them in different places.

Tests used:
[1] = tested on: HCT116 cells treated with a GSK3β inhibitor; experiment: cells; type: cell-based; conditions: for IC50: read-out: GSK3b inh pretreated_Viability ATP HCT116 summarized IC50; for IC50/EC50, GSK3b inh pretreated_Viability ATP HCT116 (assay number 26): GSK3b inh pretreated
HT-29 = experiment: cells; type: cell-based; conditions: for IC50: read-out: Basal_Viability ATP HT-29 summarized IC50
[2] = tested on: endothelial tube formation in co-cultures of ECFCs and ADSCs treated with VEGF; experiment: cells; type: cell-based, human; conditions: for IC50: read-out: VEGF_ADSC\ECFC Angio CD31 TubeArea summarized IC50
Colo320 = experiment: cells; type: cell-based; conditions: for IC50: read-out: Basal_Viability ATP Colo 320 summarized IC50
HeLa cells = experiment: cells; type: cell-based;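 on Hela CellCycMod PI 4N summarized IC50: value tracks stimulation of 4N DNA content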
SW480 = experiment: cells; type: cell-based; conditions: for IC50: read-out: Basal_Viability ATP SW480 summarized IC50
DLD-1 = experiment: cells; type: cell-based; conditions: for IC50: read-out: Basal_Viability ATP DLD-1 summarized IC50
SNU-C1 = experiment: cells; type: cell-based; conditions: for IC50: read-out: Basal_Viability ATP SNU-C1 summarized IC50
HCT116 = experiment: cells; type: cell-based; conditions: for IC50: read-out: Basal_Viability ATP HCT116 summarized IC50
RKO = experiment: cells; type: cell-based; conditions: for IC50: read-out: Basal_Viability ATP RKO summarized IC50
[3] = tested on: ECFC/ADSC co-culture cell nuclei number; conditions: for IC50: read-out: VEGF_ADSC\ECFC Angio Hoechst NucArea summarized IC50
[4] = assay number 26, GSK3b inhibitor pretreated

Structure (SMILES): O=C1C2CC=CCC2C(=O)N1SC(Cl)(Cl)Cl (stereo not drawn) [NCGC00091034-10]
- IC50 [1, 4]: 2.21 µM
- IC50 (HT-29; assay number 28, basal): 0.5 µM
- IC50 [2]: > 10 µM
- IC50 (Colo320; assay number 27, basal): 0.306 µM
- IC50 (HeLa cells; assay number 14, 2N, read-out: Hela CellCycMod PI 2N summarized IC50): > 10 µM
- IC50 (HeLa cells; assay number 15, S phase, read-out: Hela CellCycMod PI S Phase summarized IC50): > 10 µM
- IC50 (HeLa cells; assay number 16, 4N, read-out: Hela CellCycMod PI 4N summarized IC50): > 10 µM
- IC50 (HeLa cells; assay number 17, MI, read-out: Hela CellCycMod PI MI summarized IC50): 6.14 µM
- IC50 (HeLa cells; assay number 18, cell number, read-out: Hela CellCycMod PI Cell Number summarized IC50): 1.79 µM
- IC50 (SW480; assay number 24, basal): 0.0788 µM
- IC50 (DLD-1; assay number 23, basal): 0.348 µM
- IC50 (SNU-C1; assay number 30, basal): 0.903 µM
- IC50 (HCT116; assay number 25, basal): 1.76 µM
- IC50 (RKO; assay number 29, basal): 0.402 µM
- IC50 [3]: > 10 µM

Structure (SMILES): CCc1oc2ccccc2c1C(=O)c1cc(I)c(O)c(I)c1 [NCGC00160408-03]
- GSK3b inh pretreated_Viability ATP HCT116 IC50/EC50 [1]: 0.001 µM
- Basal_Viability ATP HT-29 IC50/EC50 (HT-29): 0.001 µM
- VEGF_ADSC\ECFC Angio CD31 TubeArea IC50/EC50 [2]: 5.8547 µM
- Basal_Viability ATP Colo 320 IC50/EC50 (Colo320): 0.003 µM
- Hela CellCycMod PI 2N IC50/EC50 (HeLa cells): > 10 µM
- Hela CellCycMod PI 4N IC50/EC50 (HeLa cells): > 10 µM
- Hela CellCycMod PI Cell Number IC50/EC50 (HeLa cells): > 10 µM
- Hela CellCycMod PI MI IC50/EC50 (HeLa cells): > 10 µM
- Hela CellCycMod PI S Phase IC50/EC50 (HeLa cells): > 10 µM
- Basal_Viability ATP SW480 IC50/EC50 (SW480): 0.001 µM
- Basal_Viability ATP DLD-1 IC50/EC50 (DLD-1): 0.003 µM
- Basal_Viability ATP SNU-C1 IC50/EC50 (SNU-C1): 0.001 µM
- Basal_Viability ATP HCT116 IC50/EC50 (HCT116): 0.003 µM
- Basal_Viability ATP RKO IC50/EC50 (RKO): 0.003 µM
- VEGF_ADSC\ECFC Angio Hoechst NucArea IC50/EC50 [3]: > 10 µM

Structure (SMILES): O=C1C(I)=CC(=C(c2cc(I)c(O)c(I)c2)c2ccccc2C(=O)O)C=C1I [NCGC00161636-02]
- IC50 [1]: 0.054 µM
- IC50 (HT-29): 5.73 µM
- IC50 [2]: > 10 µM
- IC50 (Colo320): 0.312 µM
- IC50 (HeLa cells; read-out: Hela CellCycMod PI 2N summarized IC50): > 10 µM
- IC50 (HeLa cells; read-out: Hela CellCycMod PI 4N summarized IC50): > 10 µM
- IC50 (HeLa cells; read-out: Hela CellCycMod PI Cell Number summarized IC50): > 10 µM
- IC50 (HeLa cells; read-out: Hela CellCycMod PI MI summarized IC50): > 10 µM
- IC50 (HeLa cells; read-out: Hela CellCycMod PI S Phase summarized IC50): > 10 µM
- IC50 (SW480): 0.112 µM
- IC50 (DLD-1): 0.0132 µM
- IC50 (SNU-C1): 3.76 µM
- IC50 (HCT116): 0.384 µM
- IC50 (RKO): 0.0373 µM
- IC50 [3]: > 10 µM

Structure (SMILES): O=C(Nc1ccc(Br)cc1)c1cc(Br)cc(Br)c1O [NCGC00159476-09]
- IC50/EC50, GSK3b inh pretreated_Viability ATP HCT116 (assay number 26) [1]: 0.001 µM
- IC50/EC50, Basal_Viability ATP HT-29 (assay number 28) (HT-29; basal): 0.001 µM
- IC50/EC50, VEGF_ADSC\ECFC Angio CD31 TubeArea (assay number 2) [2]: 1.8138 µM
- IC50/EC50, Basal_Viability ATP Colo 320 (assay number 27) (Colo320; basal): 0.003 µM
- IC50/EC50, Hela CellCycMod PI 2N (assay number 14) (HeLa cells; 2N): > 10 µM
- IC50/EC50, Hela CellCycMod PI 4N (assay number 16) (HeLa cells; 4N): > 10 µM
- IC50/EC50, Hela CellCycMod PI Cell Number (assay number 18) (HeLa cells; Cell Number): > 10 µM
- IC50/EC50, Hela CellCycMod PI MI (assay number 17) (HeLa cells; MI): > 10 µM
- IC50/EC50, Hela CellCycMod PI S Phase (assay number 15) (HeLa cells; S Phase): > 10 µM
- IC50/EC50, Basal_Viability ATP SW480 (assay number 24) (SW480; basal): 0.001 µM
- IC50/EC50, Basal_Viability ATP DLD-1 (assay number 23) (DLD-1; basal): 0.001 µM
- IC50/EC50, Basal_Viability ATP SNU-C1 (assay number 30) (SNU-C1; basal): 0.001 µM
- IC50/EC50, Basal_Viability ATP HCT116 (assay number 25) (HCT116; basal): 0.003 µM
- IC50/EC50, Basal_Viability ATP RKO (assay number 29) (RKO; basal): 0.003 µM
- IC50/EC50, VEGF_ADSC\ECFC Angio Hoechst NucArea (assay number 3) [3]: > 10 µM

Structure (SMILES): CCCCC(CC)COC(=O)CC(C(=O)OCC(CC)CCCC)S(=O)(=O)O (stereo not drawn) [NCGC00164140-07]
- IC50 [1, 4]: 16.6 µM
- IC50 (HT-29; assay number 28, basal): > 20 µM
- IC50 [2]: > 10 µM
- IC50 (Colo320; assay number 27, basal): > 20 µM
- IC50 (SW480; assay number 24, basal): > 20 µM
- IC50 (DLD-1; assay number 23, basal): > 20 µM
- IC50 (SNU-C1; assay number 30, basal): > 20 µM
- IC50 (HCT116; assay number 25, basal): > 20 µM
- IC50 (RKO; assay number 29, basal): > 20 µM
- IC50 [3]: > 10 µM

Structure (SMILES): C=CCN1CC[C@]23CCCC[C@H]2[C@H]1Cc1ccc(O)cc13 [NCGC00162247-06]
- IC50/EC50, GSK3b inh pretreated_Viability ATP HCT116 (assay number 26) [1]: > 20 µM
- IC50/EC50, Basal_Viability ATP HT-29 (assay number 28) (HT-29; basal): > 20 µM
- IC50/EC50, VEGF_ADSC\ECFC Angio CD31 TubeArea (assay number 2) [2]: > 10 µM
- IC50/EC50, Basal_Viability ATP Colo 320 (assay number 27) (Colo320; basal): > 20 µM
- IC50/EC50, Basal_Viability ATP SW480 (assay number 24) (SW480; basal): > 20 µM
- IC50/EC50, Basal_Viability ATP DLD-1 (assay number 23) (DLD-1; basal): > 20 µM
- IC50/EC50, Basal_Viability ATP SNU-C1 (assay number 30) (SNU-C1; basal): > 20 µM
- IC50/EC50, Basal_Viability ATP HCT116 (assay number 25) (HCT116; basal): > 20 µM
- IC50/EC50, Basal_Viability ATP RKO (assay number 29) (RKO; basal): > 20 µM
- IC50/EC50, VEGF_ADSC\ECFC Angio Hoechst NucArea (assay number 3) [3]: > 10 µM

Structure (SMILES): Oc1c(Br)cc(Br)c2cccnc12 [NCGC00094815-05]
- IC50 [1]: 0.183 µM
- IC50 (HT-29): 5.25 µM
- IC50 [2]: > 10 µM
- IC50 (Colo320): 0.114 µM
- IC50 (SW480): 0.132 µM
- IC50 (DLD-1): 0.157 µM
- IC50 (SNU-C1): 0.366 µM
- IC50 (HCT116): 0.193 µM
- IC50 (RKO): 0.163 µM
- IC50 [3]: > 10 µM
